Reference: patent US5858975A, “Oxyntomodulin peptide having cardiotonic activity and insulin release-bromating activity” (Kyowa Hakko Kogyo Co., Ltd., priority 1994, dated 1999)

Experiments:
[1] = system: eel atrium; assay: Effect of OXM in eel atrium (isolated atrium, tension transducer); details: isolated eel atrium in Ringer's solution, varying OXM concentration
Experimental: Test Example 1 Effect of OXM in Eel Atrium
An atrium was taken out of an eel, and one end of said atrium was fixed to the bottom of syringe filled with 1.5 ml of Ringer's solution in which was introduced a mixed gas of oxygen and carbon dioxide (95:5), while the other end thereof was connected to a tension transducer (NEC) via a silk thread. 15 μl of an aqueous solution of OXM as diluted with distilled water to have a varying concentration was added to said Ringer's solution, whereupon the tension to be generated by the atrial contraction was measured through the tension transducer. OXM used herein was the product as produced in Example 2. During this measurement, the atrial rate was also counted.

[2] = system: plasma insulin concentration; assay: Effect of OXM on plasma insulin concentration of anesthetized rat; type: in vivo; details: anesthetized fasted male SD rats, cumulative administration via jugular vein, blood 5 minutes after each dose; FIG. 3
Experimental: Test Example 2 Effect of OXM on Plasma Insulin Concentration of Anesthetized Rat
Male SD rats (370 to 450 g) were bred with no feed for from 15 to 20 hours, and then Na pentobarbital (50 mg/kg) was intra-abdominally administered thereto. A blood-collecting cannula was inserted into the carotid artery of each rat. A dosed cannula was inserted into the jugular vein of each rat. About 600 μl of blood was collected from each rat before the administration of a test chemical, and 5 minutes after each administration of a varying dose of the said test chemical. OXM obtained in Example 2 was added to physiological saline solution to adjust concentration of 1 mg/ml. The said OXM solution was diluted with a physiological saline solution, the thus-diluted solution was accumulatively administered to each rat. The dose of the solution was 1 ml/kg. The collected blood was centrifuged, and its insulin concentration was measured according to the Insulin-EIA Test (Wako Pure Chemicals).

H-HSQGTFTNDYSKYLETRRAQDFVQWLMNSKRSGGPT-OH [OXM]
atrial systole (atrial tension) ([1]; FIG. 1): dose-dependently increases | atrial rate ([1]; FIG. 2): dose-dependently increases | dose at which plasma insulin concentration is increased [2]: ≥ 0.01 mg/kg
